In ChEMBL document CHEMBL1201862, “PubChem BioAssay data set” (2004):
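Dose response: 5 concentrations. Exposure: 48 h. Format: 96-well plates. Endpoint: linear interpolation; highest concentration if not reached. GI50 is the concentration that inhibits growth by half.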 Activity calls are given as the source filed them. Cut-off read from the data, not from the text of the source: active = GI50 up to about 1.1 µM and inactive = higher. Square brackets hold non-standard residues; d marks the D form. Peptide text beside a SMILES is read from it. * marks the point of attachment. X26 = COC1=CC(=O)N(C(=O)[C@@H](O*)C(C)C)[C@H]1Cc1ccccc1; Bn2Val = CC(C)[C@@H](C(=O)*)N(Cc1ccccc1)Cc1ccccc1; NMeV = CN[C@H](C(=O)O)C(C)C; dNMeA = CN[C@H](C)C(=O)O

Assays:
Test in all cases: NCI anticancer screen, dose series, 48 h
OVCAR-8 = system: OVCAR-8
HCC 2998 = system: HCC 2998
CAKI-1 = system: CAKI-1
ACHN = system: ACHN
UACC-257 = system: UACC-257
RPMI-8226 = system: RPMI-8226
MCF7 = system: MCF7
NCI/ADR-RES = system: NCI/ADR-RES
NCI-H226 = system: NCI-H226
Malme-3M = system: Malme-3M
A549 = system: A549
Hs-578T = system: Hs-578T
SR = system: SR
UO-31 = system: UO-31
SK-MEL-2 = system: SK-MEL-2
SF-268 = system: SF-268
MOLT-4 = system: MOLT-4
NCI-H460 = system: NCI-H460
OVCAR-4 = system: OVCAR-4
TK-10 = system: TK-10

Measured: GI50

c1cc(NC2=NCCO2)c2c(c1)OCO2
inactive: OVCAR-8 > 100 µM | HCC 2998 > 100 µM | CAKI-1 > 100 µM | ACHN > 100 µM | UACC-257 > 100 µM | RPMI-8226 > 100 µM | MCF7 > 100 µM | NCI/ADR-RES > 100 µM | NCI-H226 > 100 µM | Malme-3M > 100 µM | A549 > 100 µM | Hs-578T > 100 µM | SR > 100 µM | UO-31 > 100 µM | SK-MEL-2 > 100 µM | SF-268 > 100 µM | MOLT-4 > 100 µM | NCI-H460 > 100 µM | OVCAR-4 > 100 µM

CN(C)C(=O)Oc1ccc(C(=S)Nc2ccccc2)cc1
inactive: OVCAR-8 25.6 µM | HCC 2998 > 100 µM | CAKI-1 > 100 µM | ACHN > 100 µM | UACC-257 34.8 µM | RPMI-8226 64.1 µM | MCF7 76 µM | NCI/ADR-RES 26.4 µM | Malme-3M 89.3 µM | A549 66.2 µM | Hs-578T > 100 µM | SR 46.8 µM | UO-31 75.3 µM | SK-MEL-2 > 100 µM | SF-268 > 100 µM | MOLT-4 18.3 µM | NCI-H460 40.5 µM | OVCAR-4 32.1 µM

O=[N+]([O-])/C=C\c1c[nH]c2ccc(OCc3ccccc3)cc12
inactive: OVCAR-8 4.27 µM | HCC 2998 1.67 µM | CAKI-1 20.6 µM | ACHN 2.13 µM | UACC-257 1.64 µM | RPMI-8226 2.08 µM | MCF7 6.49 µM | NCI/ADR-RES 19.3 µM | NCI-H226 2.18 µM | Malme-3M 11 µM | A549 4.31 µM | Hs-578T 3.57 µM | SR 2.03 µM | TK-10 10.4 µM | UO-31 3.58 µM | SK-MEL-2 11.5 µM | SF-268 4.37 µM | MOLT-4 3.6 µM | NCI-H460 4.43 µM

O=C([O-])C1([n+]2c(-c3ccccc3)cc(-c3ccccc3)cc2-c2ccccc2)CC1
inactive: OVCAR-8 > 100 µM | HCC 2998 29.3 µM | ACHN > 100 µM | UACC-257 25.4 µM | RPMI-8226 32.2 µM | MCF7 28.1 µM | NCI/ADR-RES > 100 µM | NCI-H226 > 100 µM | Malme-3M 34.5 µM | A549 > 100 µM | Hs-578T 56.8 µM | SR 76.2 µM | TK-10 > 100 µM | SF-268 42.3 µM | MOLT-4 65.6 µM | NCI-H460 74.5 µM | OVCAR-4 96.8 µM

CCn1c(=O)c2nc(SC)sc2n(-c2ccc(C)cc2)c1=O
inactive: OVCAR-8 > 100 µM | HCC 2998 > 100 µM | ACHN > 100 µM | UACC-257 > 100 µM | RPMI-8226 > 100 µM | MCF7 > 100 µM | NCI/ADR-RES > 100 µM | NCI-H226 > 100 µM | Malme-3M > 100 µM | A549 > 100 µM | Hs-578T 21.3 µM | SR > 100 µM | TK-10 > 100 µM | UO-31 32.1 µM | SK-MEL-2 66.4 µM | SF-268 > 100 µM | MOLT-4 > 100 µM | NCI-H460 > 100 µM | OVCAR-4 > 100 µM

COc1ccc(C2N(c3ccc(F)c([N+](=O)[O-])c3)C(=O)N3C(c4ccc(OC)cc4)N(c4ccc(F)c([N+](=O)[O-])c4)C(=O)N23)cc1 (stereo not drawn)
inactive: OVCAR-8 > 100 µM | HCC 2998 > 100 µM | CAKI-1 > 100 µM | ACHN > 100 µM | UACC-257 > 100 µM | RPMI-8226 > 100 µM | MCF7 > 100 µM | NCI/ADR-RES > 100 µM | Malme-3M > 100 µM | A549 > 100 µM | Hs-578T > 100 µM | SR > 100 µM | TK-10 > 100 µM | UO-31 > 100 µM | SK-MEL-2 > 100 µM | SF-268 > 100 µM | NCI-H460 > 100 µM | OVCAR-4 > 100 µM

COC1=CC(=O)N(C(=O)[C@@H](OC(=O)[C@@H](C)N(C)C(=O)[C@@H]2CCCN2C(=O)[C@H](C(C)C)N(C)C(=O)[C@@H](NC(=O)[C@H](C(C)C)N(Cc2ccccc2)Cc2ccccc2)C(C)C)C(C)C)[C@H]1Cc1ccccc1 (Bn2Val-V[NMeV]P[dNMeA]-X26)
inactive: OVCAR-8 > 100 µM | HCC 2998 > 100 µM | CAKI-1 > 100 µM | ACHN > 100 µM | UACC-257 > 26.1 µM | MCF7 8.65 µM | NCI/ADR-RES > 100 µM | NCI-H226 > 26.3 µM | Malme-3M > 59.6 µM | A549 > 100 µM | Hs-578T > 100 µM | SR > 100 µM | TK-10 > 100 µM | UO-31 6.44 µM | SK-MEL-2 > 50.7 µM | SF-268 > 100 µM | NCI-H460 > 100 µM | OVCAR-4 > 100 µM
